Active and inactive are the calls of the source. The rule behind the calls is not given here.
What was measured:
[1] = system: Tetronarce californica; assay: Displacement of [3H]epibatidine from (alpha1)2beta1gammadelta nAChR in Torpedo californica electroplax membranes
[2] = system: Paecilomyces lilacinus; assay: Antifungal activity against Paecilomyces lilacinus; format: functional; conditions: Purpureocillium lilacinum
[3] = molecular target: Neuronal acetylcholine receptor; alpha3/beta4 (Rattus norvegicus) (UniProt P04757+P12392); assay: Displacement of [3H]epibatidine from alpha3beta4* nAChR in Sprague-Dawley rat forebrain membranes; conditions: Membrane
[4] = system: Staphylococcus aureus; assay: Antibacterial activity against Staphylococcus aureus; format: functional
[5] = system: A2780; assay: Cytotoxicity against human A2780 cells assessed as reduction in cell viability at 20 ug/ml after 72 hrs by CyQuant dye based assay; format: functional
[6] = species: Homo sapiens; assay: Inhibition of TNFalpha-induced NFkappaB activation in HEK293 cells at 40 uM after 6 hrs by luciferase reporter gene assay relative to control; format: cell-based
[7] = system: Penicillium chrysogenum; assay: Antifungal activity against Penicillium chrysogenum; format: functional
[8] = system: Pseudomonas aeruginosa; assay: Antibacterial activity against Pseudomonas aeruginosa; format: functional
[9] = system: Escherichia coli; assay: Antibacterial activity against Escherichia coli; format: functional
[10] = species: Sus scrofa; assay: Displacement of [3H]MLA from alpha7* nAChR in pig adrenal membranes; format: cell membranes
[11] = system: Bacillus subtilis; assay: Antibacterial activity against Bacillus subtilis; format: functional
[12] = system: Aspergillus niger; assay: Antifungal activity against Aspergillus niger; format: functional
[13] = Inhibition of TNFalpha-induced NFkappaB activation in HEK293 cells after 6 hrs by luciferase reporter gene assay; format: cell-based; conditions: Homo sapiens, HEK293, 6 h
[14] = system: Fusarium graminearum; assay: Antifungal activity against Fusarium graminearum; format: functional
[15] = molecular target: Neuronal acetylcholine receptor; alpha4/beta2 (Rattus norvegicus) (UniProt P09483+P12390); assay: Displacement of [3H]epibatidine from alpha4beta2* nAChR in Sprague-Dawley rat forebrain membranes; conditions: Membrane

| Structure (SMILES) | inhibition [1] | Activity [2] | inhibition [3] | Activity [4] | Activity [5] | inhibition [6] | Activity [7] | Activity [8] | Activity [9] | inhibition [10] | Activity [11] | Activity [12] | IC50 [13] [µM] | Activity [14] | inhibition [15] |
| --- | --- | --- | --- | --- | --- | --- | --- | --- | --- | --- | --- | --- | --- | --- | --- |
| COc1cc(/C=C/C(=O)NCCCCNC(N)=O)ccc1O | inactive | inactive | inactive | inactive | inactive | > 60% | inactive | inactive | inactive | inactive | inactive | inactive | 36 | inactive | inactive |
| COc1cc([C@H]2Oc3c(OC)cc(/C=C/C(=O)NCCCCNC(N)=O)cc3[C@@H]2CO)ccc1O | inactive | inactive | inactive | inactive | inactive | inactive | inactive | inactive | inactive | inactive | inactive | inactive | – | inactive | inactive |
